Experimental data as given in article PMC11189555, “Aryl amino acetamides prevent Plasmodium falciparum ring development via targeting the lipid-transfer protein PfSTART1” (Nature Communications, 2024).
Where “and” joins values, the source holds several entries; their conditions need not be identical. Equal entries are not always repeated.

Tested on: 3D7, SLI- and CR- WT, N309K, N330K parasites
Experiment: Parasite growth over 72 h in the presence of GlcN (LDH)
Format: cell-based, Plasmodium falciparum
Conditions: for Growth over 72 h, 0.25 mM / 0 mM / Growth over 72 h, 2.5 mM / 0 mM: biological replicates 1-4; for Growth over 72 h (mean of raw readings) / Growth over 72 h normalised to 0 mM GlcN (= 100): biological replicates 1-3; for Growth over 72 h (raw reading): biological replicates 1-3, DMSO data of M833 and W991 sets
Protocol: thereafter called SLI-WT, SLI-N309K and SLI-N330K). gDNA was extracted and a PCR was conducted to check for correct integration using primers START_5’UTR.F and START_Seq.R (Table S2); the same PCR on 3D7 gDNA was used as a control, as no bands should be observed in the 3D7 samples. (B) The sequencing of the PCR […]
and that SLI-N309K and SLI-N330K contain the correct mutations. (C) Growth of 3D7, SLI-WT, -N309K or -N330K over 72 h in the presence of 0, 0.25 or 2.5 mM GlcN was measured with an LDH assay. Growth was normalised to the 0 mM GlcN condition. n=4 biological replicates. Ordinary one-way ANOVA with Dunnett’s multiple comparison test (comparison to the 0 mM condition). **: p<0.005. ***: p<0.0005. ****: p<0.0001. (D) Similar to SLI parasites, CRISPR transfectant parasites were cloned:
CR-WT clone D2, CR-N309K clone C10 and CR-N330K clone B2, thereafter called CR-WT, CR-N309K and CR-N330K. A PCR was conducted to check for correct integration using primers START_5’UTR.F and START_IntR1; 3D7 gDNA was used […]
wild-type version of pfstart1, and that CR-N309K and CR-N330K contain the correct mutations. (F) Growth of 3D7, CR-WT, -N309K or -N330K over 72 h in the presence of 0, 0.25 or 2.5 mM GlcN was measured by LDH assay (same as (C); n=6 biological replicates). Source data are provided as a Source Data file. […]
and compound 4. Note that M-833 was first purchased from MolPort (MolPort -002-267-916) then made in-house at WEHI: the differences observed in EC50s across experiments are attributed to the different batches of M -833. For some experiments, 0, 0.25 or 2.5 mM of glucosamine (GlcN) was also added. Experiments were set up in technical duplicates or triplicates. Following a freeze -thaw cycle, lactate dehydrogenase (LDH) activity was assessed as an indicator of parasite growt h 5. 30 μL of parasite culture was incubated for 30 min in the dark with 75 μL Malstat mixture (0.1 M Tris pH 9.0, 20 g/L lactic acid, pH 7.5, 0.2% Triton-X100, 0.5 g/L acetylpyridine adenine dinucleotide (APAD, Sigma), 200 μg/mL nitroblue tetrazolium (NBT; Sigma), 1 μg/mL phenozine ethosulfate (PES; Sigma)). Absorbance was then measured at 650 nm, transformed using the formula below, plotted against the logarithm of the concentrations, and a non-linear regression (log(inhibitor) vs. response, variable slope) was calculated using GraphPad Prism to assess the half-inhibitory […]
Growth inhibition % = (1 − average(sample)− average(uRBC)) ∗ 100 […]
The DMSO samples were also used to assess growth of parasite in the presence of 0.25 and 2.5 mM GlcN (normalised by DMSO in 0 mM GlcN). […]

[1] = CR-N309K parasites, 0.25 mM GlcN
[2] = CR-N309K parasites, 2.5 mM GlcN
[3] = CR-N330K parasites, 0.25 mM GlcN
[4] = CR-N330K parasites, 2.5 mM GlcN

SMILES: N[C@H]1C(O)O[C@H](CO)[C@@H](O)[C@@H]1O (some centres unmarked) [GlcN, glucosamine]
- Growth over 72 h, 0.25 mM / 0 mM (3D7, 0.25 mM GlcN): 98.6386 and 100.075 and 99.6504 and 92.7264
- Growth over 72 h, 2.5 mM / 0 mM (3D7, 2.5 mM GlcN): 77.3282 and 91.4546 and 81.2488 and 87.4334
- reduced growth (3D7, 2.5 mM GlcN, 72 h): ~ 5%
- Growth over 72 h (mean of raw readings) (3D7 parasites, 0.25 mM GlcN): 0.1623 and 0.1668 and 0.4453 and 0.6687 and 0.4936 and 0.5657
- Growth over 72 h normalised to 0 mM GlcN (= 100) (3D7 parasites, 0.25 mM GlcN): 99.2357 and 96.4441 and 83.2336 and 124.534 and 89.0493 and 116.399
- Growth over 72 h (raw reading) (3D7 parasites, 0.25 mM GlcN): 0.1683 and 0.1751 and 0.4506 and 0.6702 and 0.5044 and 0.558 and 0.1563 and 0.1585 and 0.44 and 0.6673 and 0.4828 and 0.5734
- Growth over 72 h (mean of raw readings) (3D7 parasites, 2.5 mM GlcN): 0.1303 and 0.133 and 0.3936 and 0.3428 and 0.669 and 0.5661
- Growth over 72 h normalised to 0 mM GlcN (= 100) (3D7 parasites, 2.5 mM GlcN): 79.6393 and 76.9008 and 73.5607 and 61.8528 and 124.572 and 116.481
- Growth over 72 h (raw reading) (3D7 parasites, 2.5 mM GlcN): 0.137 and 0.138 and 0.4268 and 0.3683 and 0.6835 and 0.563 and 0.1235 and 0.128 and 0.3603 and 0.3174 and 0.6544 and 0.5692
- Growth over 72 h (mean of raw readings) [1]: 0.127 and 0.1406 and 0.5399 and 0.6825 and 0.5806 and 0.5768
- Growth over 72 h normalised to 0 mM GlcN (= 100) [1]: 83.6627 and 84.6177 and 96.1271 and 111.164 and 88.2706 and 96.8194
- Growth over 72 h (raw reading) [1]: 0.13 and 0.1405 and 0.5297 and 0.694 and 0.5709 and 0.5788 and 0.124 and 0.1406 and 0.55 and 0.6711 and 0.5903 and 0.5749
- Growth over 72 h (mean of raw readings) [2]: 0.0842 and 0.08195 and 0.3029 and 0.2482 and 0.3611 and 0.3044
- Growth over 72 h normalised to 0 mM GlcN (= 100) [2]: 55.4677 and 49.3377 and 53.9263 and 37.7271 and 58.8111 and 51.0826
- Growth over 72 h (raw reading) [2]: 0.0834 (2×) and 0.3049 and 0.2428 and 0.3713 and 0.3087 and 0.085 and 0.0805 and 0.3008 and 0.2535 and 0.3509 and 0.3
- growth less than in the absence of GlcN (CR-N309K, 2.5 mM GlcN, 72 h): 50%
- Growth over 72 h (mean of raw readings) [3]: 0.2349 and 0.2489 and 0.3654 and 0.7776 and 0.3572 and 0.7298
- Growth over 72 h normalised to 0 mM GlcN (= 100) [3]: 94.757 and 83.1329 and 83.9922 and 102.755 and 71.8539 and 97.5734
- Growth over 72 h (raw reading) [3]: 0.2498 and 0.2614 and 0.3895 and 0.7636 and 0.4102 and 0.7252 and 0.2201 and 0.2364 and 0.3414 and 0.7917 and 0.3041 and 0.7344
- Growth over 72 h (mean of raw readings) [4]: 0.1315 and 0.1328 and 0.1893 and 0.172 and 0.7048 and 0.6593
- Growth over 72 h normalised to 0 mM GlcN (= 100) [4]: 53.0349 and 44.3554 and 43.5072 and 34.6042 and 93.1356 and 88.1543
- Growth over 72 h (raw reading) [4]: 0.1385 and 0.1375 and 0.1953 and 0.1767 and 0.7177 and 0.6721 and 0.1245 and 0.1281 and 0.1833 and 0.1673 and 0.692 and 0.6466
- Growth over 72 h (mean of raw readings) (CR-WT parasites, 0.25 mM GlcN): 0.2131 and 0.2403 and 0.4884 and 0.5805 and 0.5445 and 0.4768
- Growth over 72 h normalised to 0 mM GlcN (= 100) (CR-WT parasites, 0.25 mM GlcN): 94.7322 and 91.6651 and 102.262 and 415.2 and 101.567 and 345.382
- Growth over 72 h (raw reading) (CR-WT parasites, 0.25 mM GlcN): 0.2167 and 0.241 and 0.4948 and 0.5777 and 0.5446 and 0.4838 and 0.2095 and 0.2396 and 0.4819 and 0.5832 and 0.5444 and 0.4698
- Growth over 72 h (mean of raw readings) (CR-WT parasites, 2.5 mM GlcN): 0.1497 and 0.1625 and 0.3987 and 0.36 and 0.5094 and 0.4461
- Growth over 72 h normalised to 0 mM GlcN (= 100) (CR-WT parasites, 2.5 mM GlcN): 66.5703 and 61.9874 and 83.4991 and 67.1517 and 364.413 and 323.18
- Growth over 72 h (raw reading) (CR-WT parasites, 2.5 mM GlcN): 0.1508 and 0.1623 and 0.3842 and 0.3527 and 0.5062 and 0.4479 and 0.1487 and 0.1627 and 0.4133 and 0.3673 and 0.5127 and 0.4444
- Growth over 72 h, 0.25 mM / 0 mM (SLI-N309K, 0.25 mM GlcN): 84.2717 and 93.806 and 99.7943 and 79.4202
- Growth over 72 h, 2.5 mM / 0 mM (SLI-N309K, 2.5 mM GlcN): 52.5042 and 74.3497 and 80.6954 and 57.9574
- Growth over 72 h, 0.25 mM / 0 mM (SLI-N330K, 0.25 mM GlcN): 88.793 and 84.0431 and 73.2682 and 86.1624
- Growth over 72 h, 2.5 mM / 0 mM (SLI-N330K, 2.5 mM GlcN): 52.5716 and 59.0221 and 51.4095 and 62.9405
- Growth over 72 h, 0.25 mM / 0 mM (SLI-WT, 0.25 mM GlcN): 108.267 and 89.5536 and 80.5452 and 87.3943
- Growth over 72 h, 2.5 mM / 0 mM (SLI-WT, 2.5 mM GlcN): 78.3352 and 62.7379 and 46.4436 and 59.8798
- growth less than in the absence of GlcN (most SLI- and CR- lines, 2.5 mM GlcN, 72 h): approximately 40%
